According to patent publication US20230104936A1, “TRPML MODULATORS” (Casma Therapeutics, Inc., priority 2019, published 2023):

Tested on: TFEB
Test: TFEB nuclear translocation assay, HeLa wt cells
Type: cell-based
Details: 2 hrs compound treatment, Table 1 does not say HeLa wt or TRPML1 KO
Summary of the method: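 TFEB translocation into the nucleus of HeLa wt cells is scored by high-content immunofluorescence after 2 hrs of compound treatment at 37° C, reported as AC50.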

SMILES | AC50 (Homo sapiens, HeLa, 2 h) [nM] | AC50 [nM]
C[C@@H]1CN(CC2CCN(c3c(F)cccc3[C@@H](C)S(=O)(=O)c3ccc(S(=O)(=O)N(C)C)cc3)CC2)C[C@H](C)O1 [Compound A-782, 4-[(1R)-1-[2-(4-{[(2R,6S)-2,6-dimethylmorpholin-4-yl]methyl}piperidin-1-yl)-3-fluorophenyl]ethanesulfonyl]-N,N-dimethylbenzene-1-sulfonamide] | ≤ 2000 | –
C#Cc1cccc(NS(=O)(=O)c2ccc(S(=O)(=O)N(C)C)cc2)c1N1CCCCC1 [Compound A-901, N4-[3-ethynyl-2-(piperidin-1-yl)phenyl]-N1,N1-dimethylbenzene-1,4-disulfonamide] | ≤ 2000 | –
O=S(=O)(Nc1cc(Cl)ccc1N1CC2(CCC2)OC2(CCC2)C1)c1ccc2c(c1)CCC2 [Compound A-396, N-(5-chloro-2-{5-oxa-11-azadispiro[3.1.3^6.3^4]dodecan-11-yl}phenyl)-2,3-dihydro-1H-indene-5-sulfonamide] | ≤ 2000 | –
CCC(C)(C)CC(=O)N1CCN(c2ccccc2NS(=O)(=O)c2ccc(S(=O)(=O)N(C)C)cc2)CC1 [Compound A-426, N4-{2-[4-(3,3-dimethylpentanoyl)piperazin-1-yl]phenyl}-N1,N1-dimethylbenzene-1,4-disulfonamide] | ≤ 2000 | –
COCC1CCN(c2ccccc2NS(=O)(=O)c2ccc(S(=O)(=O)N(C)C)cc2)CC1 [Compound A-434, N4-{2-[4-(methoxymethyl)piperidin-1-yl]phenyl}-N1,N1-dimethylbenzene-1,4-disulfonamide] | ≤ 2000 | –
CN(C)S(=O)(=O)c1ccc(S(=O)(=O)Nc2ccccc2[C@H]2CC[C@@H](c3ccc(Cl)cc3F)CC2)cc1 [Compound A-69, N1-(2-(4-(4-chloro-2-fluorophenyl)cyclohexyl)phenyl)-N4,N4-dimethylbenzene-1,4-disulfonamide] | 2010 to 8000 | –
CC(C)(C)C(=O)N1CCN(c2ccccc2NS(=O)(=O)c2ccc(C3CC3(F)F)cc2)CC1 (stereo not drawn) [Compound A-528, 4-(2,2-difluorocyclopropyl)-N-{2-[4-(2,2-dimethylpropanoyl)piperazin-1-yl]phenyl}benzene-1-sulfonamide] | 2010 to 8000 | –
COc1ccc(S(=O)(=O)Nc2ccncc2N2CCC(c3ncc(F)cc3F)CC2)cc1 [Compound A-192, N-{3-[4-(3,5-difluoropyridin-2-yl)piperidin-1-yl]pyridin-4-yl}-4-methoxybenzene-1-sulfonamide] | ≥ 10000 | –
CC(c1ccccc1N1CCN(C2COC2)CC1)S(=O)(=O)c1ccc(S(=O)(=O)N(C)C)cc1 (stereo not drawn) [Compound A-603, N,N-dimethyl-4-(1-{2-[4-(oxetan-3-yl)piperazin-1-yl]phenyl}ethanesulfonyl)benzene-1-sulfonamide] | 2010 to 8000 | –
CN(C)S(=O)(=O)c1ccc(S(=O)(=O)Cc2cccc(Cl)c2N2CCOCC2)cc1 [Compound A-327, 4-{[3-chloro-2-(morpholin-4-yl)phenyl]methanesulfonyl}-N,N-dimethylbenzene-1-sulfonamide] | ≥ 10000 | –
CC(c1cc(Cl)cnc1N1CCC(CN2CCC(F)(F)CC2)CC1)S(=O)(=O)c1ccc(S(=O)(=O)N(C)C)cc1 (single isomer, unassigned) [Compound A-978, 4-((1-(5-chloro-2-(4-((4,4-difluoropiperidin-1-yl)methyl)piperidin-1-yl)pyridin-3-yl)ethyl)sulfonyl)-N,N-dimethylbenzenesulfonamide] | ≤ 2000 | –
O=S(=O)(Nc1ccccc1N1CCC(c2ccc(Cl)cc2F)CC1)c1ccc(F)c(F)c1 [Compound A-80, N-{2-[4-(4-chloro-2-fluorophenyl)piperidin-1-yl]phenyl}-3,4-difluorobenzene-1-sulfonamide] | 2010 to 8000 | –
COc1ccc(S(=O)(=O)Nc2ccccc2N2CCC(Cc3ccc(F)cc3F)CC2)cc1 [Compound A-195, N-(2-{4-[(2,4-difluorophenyl)methyl]piperidin-1-yl}phenyl)-4-methoxybenzene-1-sulfonamide] | 2010 to 8000 | –
CN(C)S(=O)(=O)c1ccc(S(=O)(=O)Nc2ccccc2N2CCC(CO)(c3ccc(F)cc3F)CC2)cc1 [Compound A-161, N4-{2-[4-(2,4-difluorophenyl)-4-(hydroxymethyl)piperidin-1-yl]phenyl}-N1,N1-dimethylbenzene-1,4-disulfonamide] | 2010 to 8000 | –
CN1CC2(CCN(c3ccccc3NS(=O)(=O)c3ccc(S(=O)(=O)N(C)C)cc3)CC2)c2ccncc21 [Compound A-412, N1,N1-dimethyl-N4-(2-{1′-methyl-1′,2′-dihydrospiro[piperidine-4,3′-pyrrolo[2,3-c]pyridin]-1-yl}phenyl)benzene-1,4-disulfonamide] | ≤ 2000 | –
COCC1(C)CCN(c2c(NS(=O)(=O)c3ccc(S(=O)(=O)N(C)C)cc3)ccc3ccnn23)CC1 [Compound A-822, N4-{7-[4-(methoxymethyl)-4-methylpiperidin-1-yl]pyrazolo[1,5-a]pyridin-6-yl}-N1,N1-dimethylbenzene-1,4-disulfonamide] | 2010 to 8000 | –
CN(C)S(=O)(=O)c1ccc(S(=O)(=O)Cc2cc(Cl)ccc2N2CCOCC2)cc1 [Compound A-312, 4-{[5-chloro-2-(morpholin-4-yl)phenyl]methanesulfonyl}-N,N-dimethylbenzene-1-sulfonamide] | ≥ 10000 | –

SMILES | AC50 (Homo sapiens, HeLa, 2 h) [nM] | AC50 [nM]
COCC1(C)CCN(c2ccccc2NS(=O)(=O)c2cccc(C3CC3)c2)CC1 [Compound A-643, 3-cyclopropyl-N-{2-[4-(methoxymethyl)-4-methylpiperidin-1-yl]phenyl}benzene-1-sulfonamide] | ≤ 2000 | –
CC(C)(C)C(=O)N1CCN(c2ccccc2NS(=O)(=O)c2ccc(SC(F)(F)F)cc2)CC1 [Compound A-574, N-{2-[4-(2,2-dimethylpropanoyl)piperazin-1-yl]phenyl}-4-[(trifluoromethyl)sulfanyl]benzene-1-sulfonamide] | 2010 to 8000 | –
CN(C)S(=O)(=O)c1ccc(S(=O)(=O)Nc2ccccc2N2CCN(c3ncccc3F)CC2)cc1 [Compound A-51, N4-{2-[4-(3-fluoropyridin-2-yl)piperazin-1-yl]phenyl}-N1,N1-dimethylbenzene-1,4-disulfonamide] | 2010 to 8000 | –
CC1(C)CC2(CCN(c3ccccc3NS(=O)(=O)Cc3ccc4c(c3)COCC4)CC2)CO1 [Compound A-712, 1-(3,4-dihydro-1H-2-benzopyran-7-yl)-N-(2-{3,3-dimethyl-2-oxa-8-azaspiro[4.5]decan-8-yl}phenyl)methanesulfonamide] | 2010 to 8000 | –
CN(C)S(=O)(=O)c1ccc(C(Nc2cc(Cl)ccc2N2CCOCC2)C(F)(F)F)cc1 (stereo not drawn) [Compound A-356, 4-(1-{[5-chloro-2-(morpholin-4-yl)phenyl]amino}-2,2,2-trifluoroethyl)-N,N-dimethylbenzene-1-sulfonamide] | 2010 to 8000 | –
CN(C)CC1(c2ccc(F)cc2F)CCN(c2ccccc2NS(=O)(=O)c2ccc(S(=O)(=O)N(C)C)cc2)CC1 [Compound A-221, N4-{2-[4-(2,4-difluorophenyl)-4-[(dimethylamino)methyl]piperidin-1-yl]phenyl}-N1,N1-dimethylbenzene-1,4-disulfonamide] | ≤ 2000 | –
CC(c1cccc(F)c1N1CCC(CN2C3COCC2C3)CC1)S(=O)(=O)c1ccc(S(=O)(=O)N(C)C)cc1 (stereo not drawn) [Compound A-860, 4-(1-{3-fluoro-2-[4-({3-oxa-6-azabicyclo[3.1.1]heptan-6-yl}methyl)piperidin-1-yl]phenyl}ethanesulfonyl)-N,N-dimethylbenzene-1-sulfonamide] | – | 2010 to 8000
O=S(=O)(Nc1cccnc1N1CCN(c2ncc(Cl)cc2F)CC1)c1ccc(OC(F)(F)F)cc1 [Compound A-116, N-{2-[4-(5-chloro-3-fluoropyridin-2-yl)piperazin-1-yl]pyridin-3-yl}-4-(trifluoromethoxy)benzene-1-sulfonamide] | ≥ 10000 | –
CC(c1ccccc1N1CCN(Cc2ccccc2)CC1)S(=O)(=O)c1ccc(S(=O)(=O)N(C)C)cc1 (stereo not drawn) [Compound A-465, 4-((1-(2-(4-benzylpiperazin-1-yl)phenyl)ethyl)sulfonyl)-N,N-dimethylbenzenesulfonamide] | ≤ 2000 | –
CC(c1cccc(F)c1N1CCC(COC(C)(C)C)CC1)S(=O)(=O)c1ccc(C(F)F)cc1 (single isomer, unassigned) [Compound A-976, 4-(tert-butoxymethyl)-1-(2-(1-((4-(difluoromethyl)phenyl)sulfonyl)ethyl)-6-fluorophenyl)piperidine] | ≤ 2000 | –
COCC1(C)CCN(c2ccccc2NS(=O)(=O)c2ccc3c(c2)COCC3)CC1 [Compound A-625, N-{2-[4-(methoxymethyl)-4-methylpiperidin-1-yl]phenyl}-3,4-dihydro-1H-2-benzopyran-7-sulfonamide] | ≤ 2000 | –
C[C@H](c1cccc(F)c1N1CCC(F)(F)CC1)S(=O)(=O)c1ccc(S(=N)(=O)N(C)C)cc1 (single isomer, unassigned) [Compound A-890] | – | 2010 to 8000
COCC1(C)CCN(c2ccccc2NS(=O)(=O)c2ccc(F)c(C)c2)CC1 [Compound A-616, 4-fluoro-N-{2-[4-(methoxymethyl)-4-methylpiperidin-1-yl]phenyl}-3-methylbenzene-1-sulfonamide] | 2010 to 8000 | –
CC(C1CCN(c2c(F)cccc2NS(=O)(=O)c2ccc(S(=N)(=O)N(C)C)cc2)CC1)N1C[C@@H](C)O[C@@H](C)C1 (stereo partly drawn) [Compound A-872A, N-(2-(4-(1-((2S,6R)-2,6-dimethylmorpholino)ethyl)piperidin-1-yl)-3-fluorophenyl)-4-(N,N-dimethylsulfamidimidoyl)benzenesulfonamide] | ≤ 2000 | –
COCC1(C)CCN(c2ccccc2NS(=O)(=O)Cc2ccccc2)CC1 [Compound A-532, N-{2-[4-(methoxymethyl)-4-methylpiperidin-1-yl]phenyl}-1-phenylmethanesulfonamide] | ≤ 2000 | –
CC(C)(C)C(=O)N1CCN(c2ccccc2NS(=O)(=O)c2ccc(OC3CCCC3)cc2)CC1 [Compound A-536, 4-(cyclopentyloxy)-N-{2-[4-(2,2-dimethylpropanoyl)piperazin-1-yl]phenyl}benzene-1-sulfonamide] | 8010 to 9990 | –
